Experimental data from US7981913B2, “Isophthalates as beta-secretase inhibitors” (Bristol-Myers Squibb Company, priority 2005, dated 2011).

Biological target: T1, BACE1 enzyme (Homo sapiens, UniProt P56817)
T1 construct: The HEK293-9B.A1 cell line, which overexpresses the BACE1 enzyme, was derived from HEK293 cells; endogenous in cells; washed 48,000 x g membrane pellet / cell homogenate
Experiment: Radioligand displacement assay with a radiolabeled BACE inhibitor on HEK293-9B.A1 cell homogenate
Assay type: binding
Details: displacement of 1 nM tritiated radioligand, HEK293-9B.A1 homogenate, pH 5.0, 1.5 hr at 25° C.; read-out: Activity Rating (based on IC50 values)
Description: There are a number of methods by which inhibitors of the BACE enzyme can be identified experimentally. The enzyme can be obtained from membrane samples from natural tissues or cultured cells or can be expressed recombinantly in a host cell by well known methods of molecular biology. The whole enzyme or a portion thereof can be expressed, for example, in bacterial, insect or mammalian cells to obtain a catalytically active enzyme species. The enzymatic activity and/or ligand binding capability of the enzyme can be assessed within these membrane samples, or the enzyme can be purified to varying extents. As an illustrative example, the nucleic acid sequence encoding the pro and catalytic domains of human BACE can be appended on the 5′ end with an untranslated and signal sequence from the gene for acetylcholinesterase, and on the 3′ end with a sequence encoding a poly-histidine tag. This cDNA can then be expressed in Drosophila melanogaster S2 cells in which the signal and pro sequences of the transcribed/translated protein are removed by cellular proteases and the catalytic domain, appended by a C-terminal poly-histidine tag, is secreted out into the cellular medium. The enzyme can then be purified from the culture medium by nickel affinity chromatography by methods well known to those trained in the art [Mallender, W. et al., (2001) “Characterization of recombinant, soluble beta-secretase from an insect cell expression system.” Mol. Pharmacol. 59: 619-626]. Similar strategies for expressing and purifying various forms of BACE in bacterial, mammalian and other cell types would be known to one skilled in the art. A preferred method for determining the potency of a test compound in binding to the BACE enzyme is by monitoring the displacement of a suitable radioligand.
Radioligand displacement assays with a radiolabeled BACE inhibitor (WO 2004 013098, compound 3, where the methoxy group is substituted for C(^3H)3) were carried out using standard methods (Keen, M. (1999) in Receptor Binding Techniques (Walker, J. M. ed) p. 106 Humana Press, Totowa, N.J.). The HEK293-9B.A1 cell line, which overexpresses the BACE1 enzyme, was derived from HEK293 cells (Simmons, N. L. (1990) A cultured human renal epithelioid cell line responsive to vasoactive intestinal peptide. Exp. Physiol. 75:309-19.) by RAGE™ (Harrington, J. J. et al. (2001) Creation of genome-wide protein expression libraries using random activation of gene expression. Nat. Biotechnol. 19:440-5; U.S. Pat. Nos. 6,410,266 and 6,361,972). […]

T1 sequence (P56817 46-501): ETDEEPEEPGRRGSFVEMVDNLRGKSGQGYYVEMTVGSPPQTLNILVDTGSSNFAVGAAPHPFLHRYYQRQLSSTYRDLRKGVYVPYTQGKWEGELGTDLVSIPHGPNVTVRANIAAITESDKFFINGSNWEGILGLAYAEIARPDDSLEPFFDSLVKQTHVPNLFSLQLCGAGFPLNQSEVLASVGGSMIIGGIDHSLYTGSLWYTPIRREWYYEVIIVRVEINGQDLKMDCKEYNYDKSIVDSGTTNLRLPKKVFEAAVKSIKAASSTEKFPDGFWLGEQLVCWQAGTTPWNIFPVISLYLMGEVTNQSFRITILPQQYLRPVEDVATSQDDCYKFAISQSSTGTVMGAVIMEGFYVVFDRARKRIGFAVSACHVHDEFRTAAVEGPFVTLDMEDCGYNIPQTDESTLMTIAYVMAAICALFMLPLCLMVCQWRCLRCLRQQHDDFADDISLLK

Row | Compound | IC50 [nM]
1 | CCCCN(C)C(=O)c1cccc(C(=O)N[C@@H](Cc2cc(F)cc(F)c2)[C@H](O)[C@H]2CC(c3ccccc3)CN2)c1 (stereo partly drawn) [Example 7, N^1-butyl-N^3-((1R,2S)-3-(3,5-difluorophenyl)-1-hydroxy-1-((2R)-4-phenylpyrrolidin-2-yl)propan-2-yl)-N^1-methylisophthalamide] | 100 to 1000
2 | CCCO[C@H]1CN[C@@H]([C@@H](O)[C@H](Cc2cc(F)cc(F)c2)NC(=O)c2cc(C(=O)N3CCC[C@@H]3COC)cc(-c3ncco3)c2)C1 [Example 11, N-((1R,2S)-3-(3,5-difluorophenyl)-1-hydroxy-1-((2R,4R)-4-propoxypyrrolidin-2-yl)propan-2-yl)-3-((R)-2-(methoxymethyl)pyrrolidine-1-carbonyl)-5-(oxazol-2-yl)benzamide] | < 100
3 | CCCO[C@H]1CN[C@@H]([C@@H](O)[C@H](Cc2cc(F)cc(F)c2)NC(=O)c2cc(C(=O)N(CCC)CCC)cc(-c3ncco3)c2)C1 [Example 12, N^1-((1R,2S)-3-(3,5-difluorophenyl)-1-hydroxy-1-((2R,4R)-4-propoxypyrrolidin-2-yl)propan-2-yl)-5-(oxazol-2-yl)-N^3,N^3-dipropylisophthalamide] | < 100
4 | CCCN(CCC)C(=O)c1cc(C(=O)N[C@@H](Cc2ccccc2)[C@H](O)[C@H]2C[C@@H](S(=O)(=O)CCC)CN2)cc(-c2ncco2)c1 [Example 17, N^1-((1R,2S)-1-hydroxy-3-phenyl-1-((2R,4R)-4-(propylsulfonyl)pyrrolidin-2-yl)propan-2-yl)-5-(oxazol-2-yl)-N^3,N^3-dipropylisophthalamide] | < 100
